How the values were obtained:
[1] = Inhibition of Iks current in isolated guinea pig myocytes during a 1s voltage clamp step from -50 to +50 mV.; format: functional, cell-based; settings: Cavia porcellus
[2] = target: T1, IKr current (KCNH2 potassium channel) (Homo sapiens, UniProt Q12809); assay: Inhibition of Ikr current in isolated guinea pig myocytes during a 0.5 s voltage clamp step from -50 to -10 mV at 1000 nM; format: functional, cell-based, Cavia porcellus; settings: target entry is the homologue from another species
T1 sequence (Q12809 whole entry): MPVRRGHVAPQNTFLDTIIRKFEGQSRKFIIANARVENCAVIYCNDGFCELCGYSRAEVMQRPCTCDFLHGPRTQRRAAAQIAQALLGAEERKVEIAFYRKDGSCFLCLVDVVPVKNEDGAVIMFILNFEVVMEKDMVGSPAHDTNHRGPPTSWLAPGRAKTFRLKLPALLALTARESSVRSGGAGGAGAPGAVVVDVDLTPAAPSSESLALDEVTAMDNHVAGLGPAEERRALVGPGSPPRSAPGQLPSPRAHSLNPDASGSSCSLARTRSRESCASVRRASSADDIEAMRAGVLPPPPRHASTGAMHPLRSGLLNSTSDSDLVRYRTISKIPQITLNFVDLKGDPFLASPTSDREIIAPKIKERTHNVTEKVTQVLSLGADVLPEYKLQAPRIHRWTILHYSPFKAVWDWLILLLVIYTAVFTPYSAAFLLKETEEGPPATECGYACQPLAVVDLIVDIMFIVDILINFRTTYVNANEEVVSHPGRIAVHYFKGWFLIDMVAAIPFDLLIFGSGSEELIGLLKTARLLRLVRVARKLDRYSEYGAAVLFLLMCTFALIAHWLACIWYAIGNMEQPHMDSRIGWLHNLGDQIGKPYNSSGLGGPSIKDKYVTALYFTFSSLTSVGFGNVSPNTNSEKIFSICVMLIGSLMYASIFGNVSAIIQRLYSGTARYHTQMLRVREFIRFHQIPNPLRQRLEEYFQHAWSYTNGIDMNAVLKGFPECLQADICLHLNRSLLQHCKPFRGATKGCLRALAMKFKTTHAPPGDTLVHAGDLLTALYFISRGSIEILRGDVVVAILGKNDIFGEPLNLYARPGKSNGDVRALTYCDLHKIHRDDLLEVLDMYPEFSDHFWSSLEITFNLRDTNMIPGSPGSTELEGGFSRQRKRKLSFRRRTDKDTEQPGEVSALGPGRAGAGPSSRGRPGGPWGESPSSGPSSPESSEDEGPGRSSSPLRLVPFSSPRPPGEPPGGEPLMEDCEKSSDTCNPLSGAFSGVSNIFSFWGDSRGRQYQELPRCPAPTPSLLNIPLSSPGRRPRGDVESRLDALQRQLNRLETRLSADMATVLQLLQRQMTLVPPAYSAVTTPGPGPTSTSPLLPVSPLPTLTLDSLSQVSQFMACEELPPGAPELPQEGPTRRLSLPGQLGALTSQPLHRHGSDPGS

[3] = target: T1, IKr current (KCNH2 potassium channel); assay: Inhibition of Ikr current in isolated guinea pig myocytes during a 0.5 s voltage clamp step from -50 to -10 mV at 100 nM; format: functional, cell-based, Cavia porcellus; settings: target entry is the homologue from another species
[4] = target: Voltage-gated inwardly rectifying potassium channel KCNH2 (Homo sapiens, UniProt Q12809); assay: Inhibition of Ikr current in isolated guinea pig myocytes during a 0.5 s voltage clamp step from -50 to -10 mV.; format: functional, cell-based, Cavia porcellus; settings: target entry is the homologue from another species
Sequence of Voltage-gated inwardly rectifying potassium channel KCNH2 (Q12809 whole entry): as above

Row | SMILES | IC50 [1] [nM] | inhibition at 1 µM [2] [%] | further results
1 | CN1C(=O)[C@H](NC(=O)Cc2ccc(C(F)(F)F)cc2C(F)(F)F)N=C(c2ccccc2)c2ccccc21 | 140 | – | –
2 | CN1C(=O)[C@H](NC(=O)Cc2ccccc2)N=C(c2ccccc2)c2ccccc21 | 300 | 31 | –
3 | CN1C(=O)[C@H](NC(=O)CCc2ccccc2)N=C(c2ccccc2)c2ccccc21 | 200 | 32 | –
4 | CC(C)N1C(=O)[C@H](NC(=O)CCC2CCCCC2)N=C(c2ccccc2)c2ccccc21 | 20 | – | –
5 | CC(C)N1C(=O)[C@H](NC(=O)c2cc(Cl)cc(Cl)c2)N=C(c2ccccc2)c2ccccc21 | 6 | – | –
6 | CN1C(=O)[C@H](NC(=O)c2cc(Cl)cc(Cl)c2)N=C(c2ccccc2)c2ccccc21 | 45 | 17 | –
7 | O=C(N[C@@H]1N=C(c2ccccc2)c2ccccc2N(CC(F)(F)F)C1=O)c1cc(Cl)cc(Cl)c1 | 11 | – | inhibition at 0.1 µM [3]: 25%
8 | O=C(Cc1ccc(Cl)cc1Cl)N[C@@H]1N=C(c2ccccc2)c2ccccc2N(CC(F)(F)F)C1=O | 9 | – | –
9 | CN(C)CCN1C(=O)C(NC(=O)CCc2ccc(Cl)cc2Cl)N=C(c2ccccc2)c2ccccc21 (stereo not drawn) | – | – | IC50 [4]: 100 nM
10 | CN1C(=O)[C@H](NC(=O)c2ccccc2)N=C(c2ccccc2)c2ccccc21 | 600 | 23 | –
11 | CC(C)N1C(=O)[C@@H](NC(=O)c2cc(Cl)cc(Cl)c2)N=C(c2ccccc2)c2ccccc21 | – | 6 | –
12 | CN1C(=O)[C@H](NC(=O)/C=C/c2ccc(Cl)cc2Cl)N=C(c2ccccc2)c2ccccc21 | 6 | – | –
13 | CN1C(=O)[C@H](NC(=O)C(N)Cc2ccccc2)N=C(c2ccccc2)c2ccccc21 (stereo partly drawn) | 2800 | – | –
14 | CC(=O)Nc1ccc(CCC(=O)N[C@@H]2N=C(c3ccccc3)c3ccccc3N(C)C2=O)cc1 | > 10000 | – | –
15 | O=C(Cc1cc(Cl)cc(Cl)c1)N[C@@H]1N=C(c2ccccc2)c2ccccc2N(CC(F)(F)F)C1=O | 30 | – | IC50 [4]: 4000 nM
16 | CN1C(=O)[C@H](NC(=O)CCC2CCCCC2)N=C(c2ccccc2)c2ccccc21 | 10 | – | IC50 [4]: 1000 nM
17 | O=C(Cc1ccc(C(F)(F)F)cc1C(F)(F)F)N[C@H]1N=C(c2ccccc2)c2ccccc2N(CC(F)(F)F)C1=O | – | 35 | –
18 | CC(C)N1C(=O)[C@H](NC(=O)Cc2cc(Cl)cc(Cl)c2)N=C(c2ccccc2)c2ccccc21 | 10 | – | –
19 | CN1C(=O)[C@H](NC(=O)CCc2ccc(Cl)cc2Cl)N=C(c2ccccc2)c2ccccc21 | – | 31 | –
20 | Cc1cccc(NC(=O)N[C@@H]2N=C(c3ccccc3)c3ccccc3N(C)C2=O)c1 [L-365260] | 214 | – | –
21 | O=C(Cc1ccc(C(F)(F)F)cc1C(F)(F)F)N[C@@H]1N=C(c2ccccc2)c2ccccc2N(CC(F)(F)F)C1=O [L-768673] | 6 | – | –

From ChEMBL document CHEMBL1130298, “Class III antiarrhythmic activity in vivo by selective blockade of the slowly activating cardiac delayed rectifier potassium current IKs by (R)-2-(2,4-trifluoromethyl)-N-[2-oxo-5-phenyl-1-(2,2,2-trifluoroethyl)- 2, 3-dihydro-1H-benzo[e][1,4]diazepin-3-yl]acetamide” (J Med Chem, 1997)
